Measurements published in patent publication US12215140B2, “Method of stabilizing protein contained in specimen and solution for stabilizing protein contained in specimen” (EIKEN KAGAKU KABUSHIKI KAISHA, priority 2018, dated 2025).

Test system: hemoglobin-haptoglobin complex
Assay: Stability of hemoglobin (as hemoglobin-haptoglobin complex) in samples preserved at 37° C. in preservation solution containing 1 unit/L haptoglobin, Hb measured by latex agglutination method (Examples 1 to 7)
Set-up: species or system human
Method in brief: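 Hemoglobin (~300 µg/L) in 0.5% fecal suspension, or without feces, held at 37 °C for 0–21 days in 40 mmol/L HEPES pH 6.8, 0.1% BSA, 0.1% NaN3, 1 unit/L haptoglobin, with 0–100 mmol/L phenylboronic acid ± sugars. Hb quantified by latex agglutination with anti-human Hb rabbit polyclonal; recovery (%) relative to day 0.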

[1] = Feces 1, phenylboronic acid 0.5 mmol/L, 37° C., 0 days
[2] = Feces 1, phenylboronic acid 0.5 mmol/L, 37° C., 7 days
[3] = Feces 1, phenylboronic acid 0.5 mmol/L, 37° C., 14 days
[4] = Feces 1, phenylboronic acid 0.5 mmol/L, 37° C., 21 days
[5] = Feces 1, phenylboronic acid 1 mmol/L, 37° C., 0 days
[6] = Feces 1, phenylboronic acid 1 mmol/L, 37° C., 14 days
[7] = Feces 1, phenylboronic acid 1 mmol/L, 37° C., 21 days
[8] = Feces 1, phenylboronic acid 15 mmol/L, 37° C., 0 days
[9] = Feces 1, phenylboronic acid 15 mmol/L, 37° C., 7 days
[10] = Feces 1, phenylboronic acid 15 mmol/L, 37° C., 14 days
[11] = Feces 1, phenylboronic acid 15 mmol/L, 37° C., 21 days
[12] = Feces 1, phenylboronic acid 50 mmol/L, 37° C., 0 days
[13] = Feces 1, phenylboronic acid 50 mmol/L, 37° C., 7 days
[14] = Feces 1, phenylboronic acid 50 mmol/L, 37° C., 14 days
[15] = Feces 1, phenylboronic acid 50 mmol/L, 37° C., 21 days
[16] = Feces 1, phenylboronic acid 100 mmol/L, 37° C., 0 days
[17] = Feces 1, phenylboronic acid 100 mmol/L, 37° C., 7 days
[18] = Feces 1, phenylboronic acid 100 mmol/L, 37° C., 14 days
[19] = Feces 1, phenylboronic acid 100 mmol/L, 37° C., 21 days
[20] = Feces 2, phenylboronic acid 0.5 mmol/L, 37° C., 0 days
[21] = Feces 2, phenylboronic acid 0.5 mmol/L, 37° C., 7 days
[22] = Feces 2, phenylboronic acid 0.5 mmol/L, 37° C., 14 days
[23] = Feces 2, phenylboronic acid 0.5 mmol/L, 37° C., 21 days
[24] = Feces 2, phenylboronic acid 1 mmol/L, 37° C., 7 days
[25] = Feces 2, phenylboronic acid 1 mmol/L, 37° C., 14 days
[26] = Feces 2, phenylboronic acid 1 mmol/L, 37° C., 21 days
[27] = Feces 2, phenylboronic acid 15 mmol/L, no sugar, 0 days at 37° C.
[28] = Feces 2, phenylboronic acid 15 mmol/L, no sugar, 7 days at 37° C.
[29] = Feces 2, phenylboronic acid 15 mmol/L, no sugar, 14 days at 37° C.
[30] = Feces 2, phenylboronic acid 15 mmol/L, no sugar, 21 days at 37° C.
[31] = Feces 2, phenylboronic acid 15 mmol/L, 37° C., 0 days
[32] = Feces 2, phenylboronic acid 15 mmol/L, 37° C., 7 days
[33] = Feces 2, phenylboronic acid 15 mmol/L, 37° C., 14 days
[34] = Feces 2, phenylboronic acid 15 mmol/L, 37° C., 21 days
[35] = Feces 2, phenylboronic acid 50 mmol/L, 37° C., 0 days
[36] = Feces 2, phenylboronic acid 50 mmol/L, 37° C., 7 days
[37] = Feces 2, phenylboronic acid 50 mmol/L, 37° C., 21 days
[38] = Feces 2, phenylboronic acid 100 mmol/L, 37° C., 0 days
[39] = Feces 2, phenylboronic acid 100 mmol/L, 37° C., 7 days
[40] = Feces 2, phenylboronic acid 100 mmol/L, 37° C., 14 days
[41] = Feces 2, phenylboronic acid 100 mmol/L, 37° C., 21 days

SMILES: OB(O)c1ccccc1 [phenylboronic acid]
- recovery ratio of hemoglobin in the samples (Feces 1, Feces 2, Feces 3, phenylboronic acid at 0.5 mmol/L or more): improved
- Hb concentration [1]: 279 µg/L
- Recovery ratio with respect to Hb concentration after 0 days [1]: 100%
- Hb concentration [2]: 181 µg/L
- Recovery ratio with respect to Hb concentration after 0 days [2]: 65%
- Hb concentration [3]: 147 µg/L
- Recovery ratio with respect to Hb concentration after 0 days [3]: 53%
- Hb concentration [4]: 129 µg/L
- Recovery ratio with respect to Hb concentration after 0 days [4]: 46%
- Hb concentration [5]: 275 µg/L
- Recovery ratio with respect to Hb concentration after 0 days [5]: 100%
- Recovery ratio with respect to Hb concentration after 0 days (Feces 1, phenylboronic acid 1 mmol/L, 37° C., 7 days): 66%
- Hb concentration [6]: 148 µg/L
- Recovery ratio with respect to Hb concentration after 0 days [6]: 54%
- Hb concentration [7]: 125 µg/L
- Recovery ratio with respect to Hb concentration after 0 days [7]: 45%
- Hb concentration [8]: 302 µg/L
- Recovery ratio with respect to Hb concentration after 0 days [8]: 100%
- Hb concentration [9]: 243 µg/L
- Recovery ratio with respect to Hb concentration after 0 days [9]: 80%
- Hb concentration [10]: 239 µg/L
- Recovery ratio with respect to Hb concentration after 0 days [10]: 79%
- Hb concentration [11]: 224 µg/L
- Recovery ratio with respect to Hb concentration after 0 days [11]: 74%
- Hb concentration [12]: 290 µg/L
- Recovery ratio with respect to Hb concentration after 0 days [12]: 100%
- Hb concentration [13]: 230 µg/L
- Recovery ratio with respect to Hb concentration after 0 days [13]: 79%
- Hb concentration [14]: 204 µg/L
- Recovery ratio with respect to Hb concentration after 0 days [14]: 70%
- Hb concentration [15]: 185 µg/L
- Recovery ratio with respect to Hb concentration after 0 days [15]: 64%
- Hb concentration [16]: 271 µg/L
- Recovery ratio with respect to Hb concentration after 0 days [16]: 100%
- Hb concentration [17]: 186 µg/L
- Recovery ratio with respect to Hb concentration after 0 days [17]: 69%
- Hb concentration [18]: 137 µg/L
- Recovery ratio with respect to Hb concentration after 0 days [18]: 51%
- Hb concentration [19]: 97 µg/L
- Recovery ratio with respect to Hb concentration after 0 days [19]: 36%
- Hb concentration [20]: 271 µg/L
- Recovery ratio with respect to Hb concentration after 0 days [20]: 100%
- Hb concentration [21]: 147 µg/L
- Recovery ratio with respect to Hb concentration after 0 days [21]: 54%
- Hb concentration [22]: 113 µg/L
- Recovery ratio with respect to Hb concentration after 0 days [22]: 42%
- Hb concentration [23]: 91 µg/L
- Recovery ratio with respect to Hb concentration after 0 days [23]: 34%
- Recovery ratio with respect to Hb concentration after 0 days (Feces 2, phenylboronic acid 1 mmol/L, 37° C., 0 days): 100%
- Hb concentration [24]: 166 µg/L
- Recovery ratio with respect to Hb concentration after 0 days [24]: 58%
- Hb concentration [25]: 136 µg/L
- Recovery ratio with respect to Hb concentration after 0 days [25]: 48%
- Hb concentration [26]: 116 µg/L
- Recovery ratio with respect to Hb concentration after 0 days [26]: 41%
- Hb concentration [27]: 283 µg/L
- Recovery ratio with respect to Hb concentration after 0 days [27]: 100%
- Hb concentration [28]: 249 µg/L
- Recovery ratio with respect to Hb concentration after 0 days [28]: 88%
- Hb concentration [29]: 214 µg/L
- Recovery ratio with respect to Hb concentration after 0 days [29]: 76%
- Hb concentration [30]: 191 µg/L
- Recovery ratio with respect to Hb concentration after 0 days [30]: 67%
- Hb concentration [31]: 283 µg/L
- Recovery ratio with respect to Hb concentration after 0 days [31]: 100%
- Hb concentration [32]: 249 µg/L
- Recovery ratio with respect to Hb concentration after 0 days [32]: 88%
- Hb concentration [33]: 214 µg/L
- Recovery ratio with respect to Hb concentration after 0 days [33]: 76%
- Hb concentration [34]: 191 µg/L
- Recovery ratio with respect to Hb concentration after 0 days [34]: 67%
- Hb concentration [35]: 269 µg/L
- Recovery ratio with respect to Hb concentration after 0 days [35]: 100%
- Hb concentration [36]: 214 µg/L
- Recovery ratio with respect to Hb concentration after 0 days [36]: 80%
- Recovery ratio with respect to Hb concentration after 0 days (Feces 2, phenylboronic acid 50 mmol/L, 37° C., 14 days): 65%
- Hb concentration [37]: 149 µg/L
- Recovery ratio with respect to Hb concentration after 0 days [37]: 55%
- Hb concentration [38]: 250 µg/L
- Recovery ratio with respect to Hb concentration after 0 days [38]: 100%
- Hb concentration [39]: 139 µg/L
- Recovery ratio with respect to Hb concentration after 0 days [39]: 56%
- Hb concentration [40]: 80 µg/L
- Recovery ratio with respect to Hb concentration after 0 days [40]: 32%
- Hb concentration [41]: 36 µg/L
- Recovery ratio with respect to Hb concentration after 0 days [41]: 14%
- Hb concentration (Feces 3, phenylboronic acid 0.5 mmol/L, 37° C., 0 days): 283 µg/L
